# Test results published in patent US20020192711A1, “Methods for identifying ligands of G-Protein-Coupled receptors” (priority 2001, published 2002).
# Entries after “also recorded” stand apart in the source; their conditions may differ.
# What was measured:
# [1] = test system: CCR5; test: Affinity purification of THP-1 culture supernatant HPLC fractions on immobilized CCR5, silver stain/mass spectrometry; type: binding; conditions: LPS-induced THP-1 supernatant, RP-HPLC fractions
# Method: Expressed CCR5-GST was immobilized in the same fashion as described above using a glutathione-sepharose resin. THP-1 cells, a monocytic cell line, were induced with lipopolysaccharide (LPS) from E. coli extracts (Sigma, St. Louis, Mo.), and grown for 48 hours. THP-1 cells were selected for the purpose of this experiment because THP-1 cells are a general monocytic cell line that expresses CCR5 (the receptor of interest). Also, THP-1 cells, and other monocytes are involved in the inflammatory process and migrate to sites of inflammation in response to a chemokine gradient. These cells can also be induced to produce more chemokines by using reagents such as lipopolysaccharide (LPS) from E. coli.
# The THP-1 cells were harvested by centrifugation. […] The quantity of RANTES quantitatively determined to be approximately 1 μg in approximately 2-3 L. These crude fractions or pools were purified by CCR5 affinity columns and by incubating with the immobilized CCR5. […]
# The CCR5 with column fractions were compared to CCR5-only controls because there are proteins that non-specifically bind to the column, and because the CCR5 receptor and any contaminants present in the preparation can be seen as protein bands. […] Therefore, bands that were detected only in the fraction samples were submitted for sequencing and identified by mass spectrometry. […]
# [2] = molecular target: β1-adrenergic receptor (Homo sapiens, UniProt P08588); test: Binding-displacement at β1-adrenergic receptor (FIG. 2D); conditions: membranes or solubilized receptor; 10 μM unlabeled ligand
# Method: The β1-adrenergic receptor, either in the membranes or solubilized (according to the invention), was incubated with the radiolabeled ligand, iodocyanopindolol, at a set concentration, in the presence or absence of 10 μM unlabeled ligand (pindolol). In the absence of unlabeled ligand, maximal binding of the radiolabeled ligand is observed.
# [3] = test system: CCR5; test: Affinity de-orphaning: in vitro translated cDNA pool incubated with immobilized CCR5-GST, SDS-PAGE/phosphorimage; type: binding; conditions: human lung cDNA library spiked with RANTES, [35S]-Met, CCR5 on sepharose beads
# Method: CCR5 was obtained and prepared with a GST tag according to the steps provided in Example 1. CCR5-GST was immobilized on a glutathione column using the GST tag, and incubated with ligands obtained using in vitro translation of small pools of approximately 100 clones from a cDNA library. […] Thereafter, a human lung cDNA library was spiked with RANTES and was transcribed and translated in vitro using the TNT Quick Coupled Wheat Germ kit, available from Promega Corporation (Madison, Wis.) with [^35S]-Met. RANTES cDNA alone was used as a positive control for translation and binding experiments.
# A human lung cDNA library was chosen because RANTES was originally isolated from a human lung library. Also, libraries derived from tissues having an abundant number of immune cells, such as spleen and thymus tissues also are possible sources. The cDNA was in a bacterial host (E. coli). In general, the clones were transcribed and translated, and a mixture of their respective proteins was produced in a concentrated sample. This sample then was then probed with a receptor (i.e., CCR5) to determine if there are any proteins in the pool that can bind to the receptor of interest. The concentration was approximately 5×10^9 colony forming units per ml. Thus, dilution was necessary to dilute the number of clones to approximately 100 per pool. […]
# [4] = test system: CCR5; test: Ligand mixture incubated with immobilized CCR5, western blot detection; type: binding; conditions: mixture of RANTES, MDC, gonadotropin releasing hormone
# Method: CCR5 was obtained and prepared with a GST tag bound to glutathione column according to the steps provided in Example 1. Thereafter, a ligand mixture (RANTES, MDC, gonadotropin releasing hormone) was incubated with immobilized CCR5 to determine which ligands bound to the receptor. After washing to remove non-specific binding, the SDS-PAGE sample buffer was added to each, boiled for 1 minute, and loaded onto an SDS-PAGE gel. In order to analyze the beads, SDS-PAGE was performed on the various samples and transferred to nitrocellulose by western blotting to determine which ligands were bound. Duplicate samples were run, one group for detection with anti-RANTES antibody and one group for detection with anti-MDC antibody.
# The molecular weights (in kDa) as determined by the standards are listed on the left side of the blot. The individual lanes are numbered across the top of the blot. Lanes 1-4 were developed with anti-RANTES antibody. […] The band at approximately 8 kDa is RANTES. […] Lane 3 is a RANTES standard (positive control). Lane 4 is the MDC (macrophage-derived chemokine) standard (negative control—[…]). Lanes 5-8 were developed with anti-MDC (macrophage-derived chemokine, a CCR4 ligand ) antibody. […] Lane 6 is the same as lane 2 but developed with anti-MDC antibody. Lane 7 is RANTES standard and Lane 8 is MDC standard. […]
# [5] = molecular target: T1, CCR5 (Homo sapiens, UniProt P51681, L55Q); test: Binding-displacement of radiolabeled MIP-1β at CCR5 (FIG. 2A); conditions: CCR5 in membranes or solubilized and immobilized; various concentrations
# T1 construct: made in house; host or cells: insect cells (Sf9 / High Five), baculovirus
# T1 sequence (P51681 1-352 L55Q): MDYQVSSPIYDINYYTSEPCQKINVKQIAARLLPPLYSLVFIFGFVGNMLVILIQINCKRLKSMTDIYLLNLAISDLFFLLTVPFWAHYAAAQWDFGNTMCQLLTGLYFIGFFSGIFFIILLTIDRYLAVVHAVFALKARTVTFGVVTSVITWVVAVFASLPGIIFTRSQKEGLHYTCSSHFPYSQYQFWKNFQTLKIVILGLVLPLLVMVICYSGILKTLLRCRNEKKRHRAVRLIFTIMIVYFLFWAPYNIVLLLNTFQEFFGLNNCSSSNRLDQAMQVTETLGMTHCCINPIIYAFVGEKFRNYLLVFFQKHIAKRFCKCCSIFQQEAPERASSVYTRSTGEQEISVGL
# Method: The CCR5 receptor, either in membranes or solubilized and immobilized onto the column, was incubated with the radiolabeled ligand, MIP-1β, at a set concentration, in the presence of various concentrations of the unlabeled ligand, MIP-1α. […] This displacement of the radioligand with increasing concentrations of unlabeled ligand gave a standard sigmoidal shaped curve. The two curves, one for the membrane binding-displacement and one for the binding-displacement for the immobilized receptor were substantially similar (within the experimental error), indicating similar functional conformation of the receptor in the membranes and immobilized receptor.
# [6] = molecular target: CCR5; conditions: CCR5 membrane preparations; value obtained by Receptor Biology, own preparations comparable; read-out: Kd for MIP1-β binding; cited from earlier work
# [7] = molecular target: T2, C5a receptor (Homo sapiens, UniProt P21730); test: Binding-displacement at C5a receptor (FIG. 2E); conditions: membranes or solubilized receptor; 10 μM unlabeled ligand
# T2 sequence (P21730 1-350): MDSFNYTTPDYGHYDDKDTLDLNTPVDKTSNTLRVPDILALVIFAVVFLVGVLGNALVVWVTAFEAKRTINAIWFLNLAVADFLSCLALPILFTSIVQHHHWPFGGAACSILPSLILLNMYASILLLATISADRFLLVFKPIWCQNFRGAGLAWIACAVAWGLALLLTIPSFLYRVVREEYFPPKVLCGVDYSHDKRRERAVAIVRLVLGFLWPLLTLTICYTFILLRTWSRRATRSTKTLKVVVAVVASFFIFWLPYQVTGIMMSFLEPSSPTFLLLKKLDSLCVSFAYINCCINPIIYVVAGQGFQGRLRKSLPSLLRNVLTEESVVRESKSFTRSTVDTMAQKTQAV
# Method: […], either in the membranes or solubilized (according to the invention), was incubated with the radiolabeled ligand, C5a, at a set concentration, in the presence or absence of 10 μM unlabeled ligand (C5a). In the absence of unlabeled ligand, maximal binding of the radiolabeled ligand is observed.
# β1-adrenergic receptor, sequence (P08588 whole entry, species assumed): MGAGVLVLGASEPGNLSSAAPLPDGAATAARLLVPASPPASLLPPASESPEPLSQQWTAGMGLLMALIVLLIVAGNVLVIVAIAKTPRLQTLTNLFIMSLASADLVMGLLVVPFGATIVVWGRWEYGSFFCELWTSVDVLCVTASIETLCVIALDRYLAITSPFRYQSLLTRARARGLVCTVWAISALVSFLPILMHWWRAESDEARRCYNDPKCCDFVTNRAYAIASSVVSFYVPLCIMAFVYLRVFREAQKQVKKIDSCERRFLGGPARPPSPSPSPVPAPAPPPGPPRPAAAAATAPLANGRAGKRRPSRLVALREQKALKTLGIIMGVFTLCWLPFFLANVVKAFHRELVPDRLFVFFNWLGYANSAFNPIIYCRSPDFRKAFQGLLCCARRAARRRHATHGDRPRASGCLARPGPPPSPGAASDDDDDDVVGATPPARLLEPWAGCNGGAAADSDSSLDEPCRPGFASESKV
molecule,measurement,setting,value
"statherin: second binder identified from THP-1 supernatant on CCR5 (DSSEEKFLRRIGRFGYGYGPYQPVPEQPLYPQPYQPQYQQYTF; UniProt P02808 20-62, looked up)","ligand bound to immobilized CCR5, identified by mass spectrometry",[1],binder
CC(C)NCC(O)COc1cccc2[nH]ccc12 (stereo not drawn) [pindolol],displacement of radiolabeled iodocyanopindolol by unlabeled ligand,[2],displacement of the radiolabeled ligand down to background levels
RANTES: a natural ligand for CCR5,binding of translated ligand to immobilized CCR5,[3],binding was observed
same,"ligand bound to immobilized CCR5, identified by mass spectrometry",[1],ligand for CCR5
same,binding to immobilized CCR5 from ligand mixture,[4],specifically binds to the CCR5 receptor; also recorded: bound specifically to CCR5
"MIP-1α: natural ligand for CCR5, unlabeled competing ligand",displacement of radiolabeled MIP-1β by unlabeled ligand,[5],displaced more of the radiolabeled ligand
"MIP1-β: natural ligand for CCR5, used as radioligand (protein, UniProt P13236 24-92, looked up, also: radiolabel) C-C motif chemokine 4: APMGSDPPTACCFSYTARKLPRNFVVDYYETSSLCSQPAVVFQTKRSKQVCADPSESWVQEYVYDLELN",Kd,[6],< 1 nM
"C5a: ligand of the C5a receptor (protein, UniProt P01031 678-751, looked up, C5a anaphylatoxin, ligand of the C5a receptor) C5a anaphylatoxin: TLQKKIEEIAAKYKHSVVKKCCYDGACVNNDETCEQRAARISLGPRCIKAFTECCVVASQLRANISHKDMQLGR",displacement of radiolabeled C5a by unlabeled ligand,[7],displacement of the radiolabeled ligand down to background levels
"MDC: macrophage-derived chemokine, a CCR4 ligand (protein, UniProt O00626 25-93, looked up) C-C motif chemokine 22: GPYGANMEDSVCCRDYVRYRLPLRVVKHFYWTSDSCPRPGVVLLTFRDKEICADPRVPWVKMILNKLSQ",binding to immobilized CCR5 from ligand mixture,[4],does not bind to CCR5
